Measured values from publication PMC6934184, “Selective DNA-PKcs inhibition extends the therapeutic index of localized radiotherapy and chemotherapy” (The Journal of Clinical Investigation, 2019).

Biological target: T1, FYN (Homo sapiens, UniProt P06241)
T1 construct: purchased Thermo Fisher Scientific (Life Technologies) SelectScreen
Test: SelectScreen Z'LYTE
Type: biochemical
Outline: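 Compound tested in SelectScreen activity assays, Z'LYTE for CSF1R, CDK1/cyclin B and MAP2K6 and Adapta for CAMK1. ATP for CAMK1 was listed as 10, and Km app was used for CSF1R. Results are expressed in percent.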

T1 sequence (P06241 whole entry): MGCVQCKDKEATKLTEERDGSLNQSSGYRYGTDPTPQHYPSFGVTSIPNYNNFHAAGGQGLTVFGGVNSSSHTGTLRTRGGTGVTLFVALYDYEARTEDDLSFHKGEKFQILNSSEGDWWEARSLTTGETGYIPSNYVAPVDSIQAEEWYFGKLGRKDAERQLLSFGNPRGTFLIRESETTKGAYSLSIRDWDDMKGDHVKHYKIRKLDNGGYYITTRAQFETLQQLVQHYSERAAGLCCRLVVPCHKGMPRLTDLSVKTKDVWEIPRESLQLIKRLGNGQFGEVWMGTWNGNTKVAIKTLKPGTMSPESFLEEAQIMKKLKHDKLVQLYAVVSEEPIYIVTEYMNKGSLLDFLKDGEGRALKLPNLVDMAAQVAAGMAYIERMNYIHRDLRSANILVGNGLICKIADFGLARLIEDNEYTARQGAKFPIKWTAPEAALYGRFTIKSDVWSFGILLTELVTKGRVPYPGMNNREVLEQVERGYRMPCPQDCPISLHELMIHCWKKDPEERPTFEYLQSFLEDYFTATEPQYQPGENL

## CN(C(=O)CN1CCOCC1)c1ccc2sc3c(-c4cccc5c(=O)cc(N6CC7CCC(C6)O7)oc45)cccc3c2c1 [NU5455]
  inhibition at 1 µM: 8.3%
